Data taken from US20080207645A1, “Pyridothienopyrimidine Derivatives” (priority 2004, published 2008).

Test system: PDE4
Assay: PDE4 Assay Procedure ([3H]-cAMP SPA)
Format: biochemical
Details: 15 nM [3H]-cAMP, 1 hour at room temperature, SPA beads
Procedure: Compounds to be tested were resuspended in DMSO at a stock concentration of 1 mM. […] These dilutions were done in 96-well plates. In some cases, plates containing diluted compounds were frozen before being assayed. In these cases, the plates were thawed at room temperature and stirred for 15 minutes.
Ten microliters of the diluted compounds were poured into a “low binding” assay plate. […] The reaction was initiated by adding ten microliters of a solution containing PDE4. The plate was then incubated under stirring for 1 hour at room temperature. After incubation the reaction was stopped with 50 microlitres of SPA beads, and the reaction was allowed to incubate for another 20 minutes at room temperature before measuring radioactivity using standard instrumentation.
The reaction mixture was prepared by adding 90 ml of H2O to 10 ml of 10× assay buffer (500 mM Tris pH 7.5, 83 mM MgCl2, 17 mM EGTA), and 40 microlitres 1 μCi/μL [3H]-cAMP. SPA beads solution was prepared by adding 500 mg to […] H2O for a final concentration of 20 mg/ml beads and 18 mM zinc sulphate.

Structure (SMILES)	IC50
CC1(C)Cc2c(c(N3CCOCC3)nc3sc4c(NCCN5CCOCC5)ncnc4c23)CO1 [Example 20, 2,2-Dimethyl-5-morpholin-4-yl-N-(2-morpholin-4-ylethyl)-1,4-dihydro-2H-pyrano[4″,3″:4′,5′]pyrido[3′,2′:4,5]thieno[3,2-d]pyrimidin-8-amine]	26 nM
CC1(C)Cc2c(c(N3CCCC3)nc3sc4c(NCCN5CCOCC5)ncnc4c23)CO1 [Example 27, 2,2-Dimethyl-5-pyrrolidin-1-yl-N-(2-morpholin-4-ylethyl)-1,4-dihydro-2H-pyrano[4″,3″:4′,5′]pyrido[3′,2′:4,5]thieno[3,2-d]pyrimidin-8-amine]	23 nM
CCCc1nc2sc3c(NCCN4CCOCC4)ncnc3c2c2c1COC(C)(C)C2 [Example 38, 2,2-dimethyl-N-(2-morpholin-4-ylethyl)-5-propyl-1,4-dihydro-2H-pyrano[4″,3″:4′,5′]pyrido[3′,2′:4,5]thieno[3,2-d]pyrimidin-8-amine]	19 nM
CC(C)c1nc2sc3c(NCc4ccccn4)ncnc3c2c2c1COC(C)(C)C2 [Example 46, 2,2-Dimethyl-5-isopropyl-N-(pyridin-2-ylmethyl)-1,4-dihydro-2H-pyrano[4″,3″:4′,5′]pyrido[3′,2′:4,5]thieno[3,2-d]pyrimidin-8-amine]	14 nM
COCCN(C)c1nc2sc3c(NCc4cccnc4)ncnc3c2c2c1COC(C)(C)C2 [Example 59, N-(2-Methoxyethyl)-N,2,2-trimethyl-N-(pyridin-3-ylmethyl)-1,4-dihydro-2H-pyrano[4″,3″:4′,5′]pyrido[3′,2′:4,5]thieno[3,2-d]pyrimidine-5,8-diamine.]	61 nM
CC1(C)Cc2c(c(N3CCCC3)nc3sc4c(NCc5ccncc5)ncnc4c23)CO1 [Example 71, 2,2-Dimethyl-N-(pyridin-4-ylmethyl)-5-pyrrolidin-1-yl-1,4-dihydro-2H-pyrano[4″,3″:4′,5′]pyrido[3′,2′:4,5]thieno[3,2-d]pyrimidin-8-amine]	32 nM
CC(C)Cc1nc2sc3c(NCc4cccnc4)ncnc3c2c2c1COC(C)(C)C2 [Example 74, 5-Isobutyl-2,2-dimethyl-N-(pyridin-3-ylmethyl)-1,4-dihydro-2H-pyrano[4″,3″:4′,5′]pyrido[3′,2′:4,5]thieno[3,2-d]pyrimidin-8-amine]	22 nM

Now from value to molecule:

IC50	Structure (SMILES)
4.6 nM	CC1(C)Cc2c(c(N3CCOCC3)nc3sc4c(NCc5cccnc5)ncnc4c23)CO1 [Example 36, 2,2-dimethyl-5-morpholin-4-yl-N-(pyridin-3-ylmethyl)-1,4-dihydro-2H-pyrano[4″,3″:4′,5′]pyrido[3′,2′:4,5]thieno[3,2-d]pyrimidin-8-amine]
21 nM	CC1(C)Cc2c(c(N3CCOCC3)nc3sc4c(NCc5ccccn5)ncnc4c23)CO1 [Example 37, 2,2-dimethyl-5-morpholin-4-yl-N-(pyridin-2-ylmethyl)-1,4-dihydro-2H-pyrano[4″,3″:4′,5′]pyrido[3′,2′:4,5]thieno[3,2-d]pyrimidin-8-amine]
19 nM	CC1(C)Cc2c(c(N3CCOCC3)nc3sc4c(NCc5ccncc5)ncnc4c23)CO1 [Example 55, 2,2-Dimethyl-5-morpholin-4-yl-N-(pyridin-4-ylmethyl)-1,4-dihydro-2H-pyrano[4″,3″:4′,5′]pyrido[3′,2′:4,5]thieno[3,2-d]pyrimidin-8-amine]
24 nM	CCCc1nc2sc3c(NCc4cccnc4)ncnc3c2c2c1COC(C)(C)C2 [Example 72, 2,2-Dimethyl-5-propyl-N-(pyridin-3-ylmethyl)-1,4-dihydro-2H-pyrano[4″,3″:4′,5′]pyrido[3′,2′:4,5]thieno[3,2-d]pyrimidin-8-amine]
13 nM	CCC1(C)Cc2c(c(N3CCOCC3)nc3sc4c(NCc5cccnc5)ncnc4c23)CO1 (stereo not drawn) [Example 80, 2-Ethyl-2-methyl-5-morpholin-4-yl-N-(pyridin-3-ylmethyl)-1,4-dihydro-2H-pyrano[4″,3″:4′,5′]pyrido[3′,2′:4,5]thieno[3,2-d]pyrimidin-8-amine]
